Laboratory results as given in US12024506B2, “Compounds” (Oxford University Innovation Limited, priority 2018, dated 2024).

Target: T1, GST-human KRas166 (G12V) GPPNHP (Homo sapiens, UniProt P01116, G12V)
T1 construct: made in house; host or cells: E. coli C41(DE3)
Assay: KRas small-molecule screening by SPR (Biacore T200)
Format: binding
Conditions: compound 100 uM, 5% DMSO buffer; immobilised GST-KRas166 (G12V) GPPNHP
Protocol: For SPR assays pGEX-KRAS(G12V) plasmid was transformed into E. coli C41(DE3). Bacterial cells were cultured at 37° C. to an OD600 of 0.6 and induced with IPTG (final 0.1 mM) at 18° C. over night. The GST fusion proteins were extracted from bacteria pellets after cell disruption in 140 mM NaCl, 2.7 mM KCl, 10 mM NaH2PO4, 1.8 mM KH2PO4, 1 mM EDTA, 2 mM MgCl2 pH 7.4 and purified by glutathione-sepharose column chromatography (GE Healthcare), eluting with 50 mM Tris-HCl pH8.0, 10 mM reduced glutathione, 1 mM DTT, 2 mM MgCl2. The eluted proteins were dialysed against 50 mM Tris-HCl pH8.0, 1 mM DTT, 2 mM MgCl2 and concentrated to 10 mg/ml using a Biomax-30 ULTRAFREE-15 centrifugal filter device (Millipore). Purified KRAS protein was loaded with GPPNHP as described elsewhere (Pacold et al., 2000). Loaded protein was then purified by gel filtration on a HiLoad Superdex-75 HR column (GE Healthcare) in 1×PBS pH7.4, 5 mM MgCl2 and concentrated for storage.
Protocol for KRas Small-Molecule Screening and Affinity Measurements by SPR
To a previously immobilized CM5 chip (GE Healthcare BR-1005-30) with anti GST antibody via amine coupling method, GST in channel 1 and GST-human KRas166 (G12V) GPPNHP in channel 2 were immobilised. GST was immobilised between 2,000 and 5,000 Response units. KRAS166 (G12V) was immobilized between 10,000 to 15,000 Response Units.
In a 96 well plate, compounds were diluted in […], 5 mM MgCl2 and 5% DMSO Buffer to a final concentration of 100 uM. DCAl was used as positive control. Experiment also included a solvent correction curve for 5% DMSO. Screening and evaluation of the protein immobilization and the compounds screening was done accordingly to the BIACORE T200 control and evaluation software.
Calculations for how many response units are required for a 1:1 ratio of compound/protein interaction are shown below. • Protein immobilisation: 10,000 RU; average fragment 300 Da in size. • Rmax=(MWA/MWL)×RL×SM • MWA is the molecular weight of the analyte in Da • MWL is the molecular weight of the ligand in Da • RL is the immobilization level in RU • SM is the molar stoichiometry (assume 1:1) • Rmax=300/47,500×10,000×1 • Rmax=63 RU. Cell Viability Assay protocols Assay 1

| SPR Response Units | SMILES |
| --- | --- |
| 10 Response Units | COc1cccc(-c2cccc3c2OCCO3)n1 [Example 1, 2-(2,3-Dihydro-benzo[1,4]dioxin-5-yl)-6-methoxy-pyridine] |
| 17 Response Units | COc1cccc(-c2cccc3c2OC(CO)CO3)n1 (centres unmarked) [Example 2, [8-(6-Methoxy-pyridin-2-yl)-2,3-dihydro-benzo[1,4]dioxin-2-yl]-methanol] |
| 16 Response Units | COc1cc(N)cc(-c2cccc3c2OCCO3)n1 [Example 3, 2-(2,3-Dihydro-benzo[1,4]dioxin-5-yl)-6-methoxy-pyridin-4-ylamine] |
| 37 Response Units | COc1cc(NC(=O)C2CCN(C)CC2)cc(-c2cccc3c2OCCO3)n1 [Example 4, 1-Methyl-piperidine-4-carboxylic acid [2-(2,3-dihydro-benzo[1,4]dioxin-5-yl)-6-methoxy-pyridin-4-yl]-amide] |
| 84 Response Units | COc1cc(NC(=O)[C@@H]2CCNC2)cc(-c2cccc3c2OCCO3)n1 [Example 17, (R)-Pyrrolidine-3-carboxylic acid [2-(2,3-dihydro-benzo[1,4]dioxin-5-yl)-6-methoxy-pyridin-4-yl]-amide] |
| 71 Response Units | COc1cc(NC(=O)[C@H]2CNCCO2)cc(-c2cccc3c2OCCO3)n1 [Example 18, (R)-Morpholine-2-carboxylic acid [2-(2,3-dihydro-benzo[1,4]dioxin-5-yl)-6-methoxy-pyridin-4-yl]-amide] |
| 100 Response Units | COc1cc(NC(=O)C2CCNCC2)cc(-c2cccc3c2OCCO3)n1 [Example 19, Piperidine-4-carboxylic acid [2-(2,3-dihydro-benzo[1,4]dioxin-5-yl)-6-methoxy-pyridin-4-yl]-amide] |
| 80 Response Units | COc1cc(NC(=O)[C@@H]2CNCCO2)cc(-c2cccc3c2OCCO3)n1 [Example 20, (S)-Morpholine-2-carboxylic acid [2-(2,3-dihydro-benzo[1,4]dioxin-5-yl)-6-methoxy-pyridin-4-yl]-amide] |
| 66 Response Units | COc1cc(NC(=O)[C@H]2CC[C@@H](N)CC2)cc(-c2cccc3c2OCCO3)n1 [Example 21, 4-Amino-cyclohexanecarboxylic acid [2-(2,3-dihydro-benzo[1,4]dioxin-5-yl)-6-methoxy-pyridin-4-yl]-amide] |
| 55 Response Units | COc1cc(NC(=O)N(C)C2CCN(C)CC2)cc(-c2cccc3c2OCCO3)n1 [Example 22, 3-[2-(2,3-Dihydro-benzo[1,4]dioxin-5-yl)-6-methoxy-pyridin-4-yl]-1-methyl-1-(1-methyl-piperidin-4-yl)-urea] |
| 58 Response Units | COc1cc(NC(=O)N2CCN(C)CC2)cc(-c2cccc3c2OCCO3)n1 [Example 23, 4-Methyl-piperazine-1-carboxylic acid [2-(2,3-dihydro-benzo[1,4]dioxin-5-yl)-6-methoxy-pyridin-4-yl]-amide] |
| 58 Response Units | COc1cccc(-c2cccc3c2OC(CNCC2CCN(C)CC2)CO3)n1 (centres unmarked) [Example 27, [8-(6-Methoxy-pyridin-2-yl)-2,3-dihydro-benzo[1,4]dioxin-2-ylmethyl]-(1-methyl-piperidin-4-ylmethyl)-amine] |
| 28 Response Units | COc1cccc(-c2cccc3c2OC(CNCc2cccnc2)CO3)n1 (centres unmarked) [Example 28, [8-(6-Methoxy-pyridin-2-yl)-2,3-dihydro-benzo[1,4]dioxin-2-ylmethyl]-pyridin-3-ylmethyl-amine] |
| 14 Response Units | COc1cccc(-c2cccc3c2OC(CNCC2CCOCC2)CO3)n1 (centres unmarked) [Example 29, [8-(6-Methoxy-pyridin-2-yl)-2,3-dihydro-benzo[1,4]dioxin-2-ylmethyl]-(tetrahydro-pyran-4-ylmethyl)-amine] |
| 26 Response Units | COc1cccc(-c2cccc3c2OC(CNCC2CCN(C(=O)c4cnccn4)CC2)CO3)n1 (centres unmarked) [Example 29a, [4-({[8-(6-Methoxy-pyridin-2-yl)-2,3-dihydro-benzo[1,4]dioxin-2-ylmethyl]-amino}-methyl)-piperidin-1-yl]-pyrazin-2-yl-methanone] |
| 42 Response Units | COc1cccc(-c2cccc3c2OC(CNCC2CCN(C(=O)C4CCOCC4)CC2)CO3)n1 (centres unmarked) [Example 30, [4-({[8-(6-Methoxy-pyridin-2-yl)-2,3-dihydro-benzo[1,4]dioxin-2-ylmethyl]-amino}-methyl)-piperidin-1-yl]-(tetrahydro-pyran-4-yl)-methanone] |
| 37 Response Units | COc1cccc(-c2cccc3c2OC(CN2C(=O)NC4(CCN(C)CC4)C2=O)CO3)n1 (centres unmarked) [Example 34, 3-[8-(6-Methoxy-pyridin-2-yl)-2,3-dihydro-benzo[1,4]dioxin-2-ylmethyl]-8-methyl-1,3,8-triaza-spiro[4.5]decane-2,4-dione] |
| 33 Response Units | COc1cccc(-c2cccc3c2OC(CN2C(=O)NC(C)(C)C2=O)CO3)n1 (centres unmarked) [Example 35, 3-[8-(6-Methoxy-pyridin-2-yl)-2,3-dihydro-benzo[1,4]dioxin-2-ylmethyl]-5,5-dimethyl-imidazolidine-2,4-dione] |
| 58 Response Units | COc1ccc(N2CC(=O)N(CC3COc4cccc(-c5cccc(OC)n5)c4O3)C2=O)cn1 (centres unmarked) [Example 36, 1-(6-Methoxy-pyridin-3-yl)-3-[8-(6-methoxy-pyridin-2-yl)-2,3-dihydro-benzo[1,4]dioxin-2-ylmethyl]-imidazolidine-2,4-dione] |
| 31 Response Units | COc1cccc(-c2cccc3c2OC(CN2C(=O)CN(C4CCNCC4)C2=O)CO3)n1 (centres unmarked) [Example 37, 3-[8-(6-Methoxy-pyridin-2-yl)-2,3-dihydro-benzo[1,4]dioxin-2-ylmethyl]-1-piperidin-4-yl-imidazolidine-2,4-dione] |
| 62 Response Units | CN1CCN(Cc2ccc(C(=O)NCC3COc4cccc(-c5ccn[nH]5)c4O3)o2)CC1 (centres unmarked) [Example 42, 5-(4-Methyl-piperazin-1-ylmethyl)-furan-2-carboxylic acid [8-(2H-pyrazol-3-yl)-2,3-dihydro-benzo[1,4]dioxin-2-ylmethyl]-amide] |
| 42 Response Units | COc1cccc(-c2cccc3c2O[C@@H](CNC(=O)c2ccc(CN4CCN(C)CC4)o2)CO3)n1 [Example 44, 5-(4-Methyl-piperazin-1-ylmethyl)-furan-2-carboxylic acid [(S)-8-(6-methoxy-pyridin-2-yl)-2,3-dihydro-benzo[1,4]dioxin-2-ylmethyl]-amide] |
| 12 Response Units | COc1cccc(-c2cccc3c2OC(CNC(=O)C2CCOCC2)CO3)n1 (centres unmarked) [Example 45, Tetrahydro-pyran-4-carboxylic acid [8-(6-methoxy-pyridin-2-yl)-2,3-dihydro-benzo[1,4]dioxin-2-ylmethyl]-amide] |
| 90 Response Units | COc1ccc(-c2cccc3c2OC(CNC(=O)c2ccc(CN4CCN(C)CC4)o2)CO3)cn1 (centres unmarked) [Example 45a, 5-(4-Methyl-piperazin-1-ylmethyl)-furan-2-carboxylic acid [8-(6-methoxy-pyridin-3-yl)-2,3-dihydro-benzo[1,4]dioxin-2-ylmethyl]-amide] |
| 16 Response Units | COc1cccc(-c2cccc3c2OC(CNC(=O)CCN(C)C)CO3)n1 (centres unmarked) [Example 47, 3-Dimethylamino-N-[8-(6-methoxy-pyridin-2-yl)-2,3-dihydro-benzo[1,4]dioxin-2-ylmethyl]-propionamide] |
| 54 Response Units | COc1cccc(-c2cccc3c2O[C@H](CNC(=O)C2CCN(Cc4cnccn4)CC2)CO3)n1 [Example 48, 1-Pyrazin-2-ylmethyl-piperidine-4-carboxylic acid [(R)-8-(6-methoxy-pyridin-2-yl)-2,3-dihydro-benzo[1,4]dioxin-2-ylmethyl]-amide] |
